Consider 13 compounds from ChEMBL document CHEMBL3414426, “Xanthone analogues as potent modulators of intestinal P-glycoprotein” (Eur J Med Chem, 2015).

SMILES strings stand for the structures. Active and inactive are the calls of the source. The calls are words filed in the database; no cut-off is given here.

The target of series [1] is T1, ATP-dependent translocase ABCB1 (Homo sapiens, UniProt P08183). Description: Inhibition of P-glycoprotein in human MCF7/ADR cells assessed as daunomycin IC50 at 100 uM after 2 hrs. The settings on record: nci/adr-res. Type of series: cell-based.
The target in series [2] is T1, ATP-dependent translocase ABCB1. Description: Inhibition of P-glycoprotein in human MCF7/ADR cells assessed as increase in [3H]-DNM accumulation at 100 uM after 2 hrs relative untreated control. Format: cell-based. To be noted: nci/adr-res. The arrangement: Activity: scale not given: the % may be the effect or the level left.
The next series concerns NCI/ADR-RES. Description: Effect on P-glycoprotein expression in human MCF7/ADR cells at 100 uM after 2 hrs by Western blot analysis. Type of series: functional, cell-based.
Series [3] has as its target T1, ATP-dependent translocase ABCB1. The series can be described thus: (§1) Inhibition of P-glycoprotein in human MCF7/ADR cells assessed as reduction in [3H]-DNM efflux ratio at 100 uM after 1 hr relative untreated control. Type of series: cell-based, NCI/ADR-RES. To be noted: nci/adr-res, 1 h, 100 µM.
Series [4] concerns Mus musculus. The series can be described thus: Toxicity in human A549 cells xenografted in BALB/c athymic nude male mouse assessed as maximum weight loss at 10 mg/kg, po in presence of 40 mg/kg, po PTX administered on day 1, 5, 9 and 13 post tumor implantation. Format: organism-based. To be noted: in vivo. (Xenograft models place foreign cells or tissue in a host animal.)
Series [5] has as its system Mus musculus. Description: Toxicity in human A549 cells xenografted in BALB/c athymic nude male mouse assessed as maximum weight loss at 5 mg/kg, po in presence of 40 mg/kg, po PTX administered on day 1, 5, 9 and 13 post tumor implantation. Type of series: organism-based. The settings on record: in vivo.
Series [6] has as its system A549. The series can be described thus: Anticancer activity against human A549 cells xenografted in BALB/c athymic nude male mouse assessed as mouse survival rate at 5 mg/kg, po in presence of 40 mg/kg, po PTX administered on day 1, 5, 9 and 13 post tumor implantation. Format: functional.
The nature of series [7]: Cmax in Sprague-Dawley rat at 15 mg/kg, po. The arrangement: dose 15 mg/kg, route oral. Format: ADME, organism-based. To be noted: in vivo.
Series [8] deals with A549. The series can be described thus: Anticancer activity against human A549 cells xenografted in BALB/c athymic nude male mouse assessed as tumor growth inhibition rate at 5 mg/kg, po in presence of 40 mg/kg, po PTX administered on day 1, 5, 9 and 13 post tumor implantation. Type of series: functional.
The nature of series [9]: AUC (0 to t) in Sprague-Dawley rat at 5 mg/kg, iv. Details: dose 5 mg/kg, route intravenous. To be noted: plasma. Format: ADME, organism-based.
The nature of series [10]: Absolute bioavailability in Sprague-Dawley rat at 15 mg/kg, po. Type of series: ADME, organism-based. The settings on record: in vivo.
Series [11] is described as follows: AUC (0 to t) in Sprague-Dawley rat at 15 mg/kg, po. Details: dose 15 mg/kg, route oral. Format: ADME, organism-based. To be noted: plasma.
Series [12] in a line: Elimination rate constant in Sprague-Dawley rat at 5 mg/kg, iv. The arrangement: dose 5 mg/kg, route intravenous. To be noted: in vivo. Format: ADME, organism-based.
The nature of series [13]: Elimination rate constant in Sprague-Dawley rat at 15 mg/kg, po. Format: ADME, organism-based. Details: dose 15 mg/kg, route oral. The settings on record: in vivo.
Series [14] is described as follows: Initial drug concentration in Sprague-Dawley rat blood at 5 mg/kg, iv. Type of series: ADME, organism-based. The arrangement: dose 5 mg/kg, route intravenous.
For the next series, the system named is Rattus norvegicus. Description: Absolute bioavailability in Sprague-Dawley rat at 5 mg/kg, iv. Format: ADME, organism-based. To be noted: in vivo.
The test system of series [15] is A549. Description: Anticancer activity against human A549 cells xenografted in BALB/c athymic nude male mouse assessed as mouse tumor growth inhibition rate at 10 mg/kg, po in presence of 40 mg/kg, po PTX administered on day 1, 5, 9 and 13 post tumor implantation. Type of series: functional.
The nature of series [16]: Elimination half life in Sprague-Dawley rat at 5 mg/kg, iv. The arrangement: dose 5 mg/kg, route intravenous. The settings on record: in vivo, read-out: beta t1/2 (converted). Type of series: ADME, organism-based.
In series [17] the test system is A549. The series can be described thus: Anticancer activity against human A549 cells xenografted in BALB/c athymic nude male mouse assessed as mouse survival rate at 10 mg/kg, po in presence of 40 mg/kg, po PTX administered on day 1, 5, 9 and 13 post tumor implantation. Format: functional.
The target of the next series is P-glycoprotein (ABCB1) (Homo sapiens, UniProt P08183). The series is described as §1. Format: cell-based, NCI/ADR-RES. The settings on record: MCF7/ADR cells (NCI/ADR-RES), probe [3H]-DNM, read-out: Activity.
A short description of series [18]: Tmax in Sprague-Dawley rat at 15 mg/kg, po. Type of series: ADME, organism-based. The arrangement: dose 15 mg/kg, route oral. The settings on record: in vivo.
Series [19] is described as follows: Elimination half life in Sprague-Dawley rat at 15 mg/kg, po. The settings on record: in vivo, read-out: beta t1/2 (converted). Type of series: ADME, organism-based. The arrangement: dose 15 mg/kg, route oral.

T1 sequence (P08183 whole entry): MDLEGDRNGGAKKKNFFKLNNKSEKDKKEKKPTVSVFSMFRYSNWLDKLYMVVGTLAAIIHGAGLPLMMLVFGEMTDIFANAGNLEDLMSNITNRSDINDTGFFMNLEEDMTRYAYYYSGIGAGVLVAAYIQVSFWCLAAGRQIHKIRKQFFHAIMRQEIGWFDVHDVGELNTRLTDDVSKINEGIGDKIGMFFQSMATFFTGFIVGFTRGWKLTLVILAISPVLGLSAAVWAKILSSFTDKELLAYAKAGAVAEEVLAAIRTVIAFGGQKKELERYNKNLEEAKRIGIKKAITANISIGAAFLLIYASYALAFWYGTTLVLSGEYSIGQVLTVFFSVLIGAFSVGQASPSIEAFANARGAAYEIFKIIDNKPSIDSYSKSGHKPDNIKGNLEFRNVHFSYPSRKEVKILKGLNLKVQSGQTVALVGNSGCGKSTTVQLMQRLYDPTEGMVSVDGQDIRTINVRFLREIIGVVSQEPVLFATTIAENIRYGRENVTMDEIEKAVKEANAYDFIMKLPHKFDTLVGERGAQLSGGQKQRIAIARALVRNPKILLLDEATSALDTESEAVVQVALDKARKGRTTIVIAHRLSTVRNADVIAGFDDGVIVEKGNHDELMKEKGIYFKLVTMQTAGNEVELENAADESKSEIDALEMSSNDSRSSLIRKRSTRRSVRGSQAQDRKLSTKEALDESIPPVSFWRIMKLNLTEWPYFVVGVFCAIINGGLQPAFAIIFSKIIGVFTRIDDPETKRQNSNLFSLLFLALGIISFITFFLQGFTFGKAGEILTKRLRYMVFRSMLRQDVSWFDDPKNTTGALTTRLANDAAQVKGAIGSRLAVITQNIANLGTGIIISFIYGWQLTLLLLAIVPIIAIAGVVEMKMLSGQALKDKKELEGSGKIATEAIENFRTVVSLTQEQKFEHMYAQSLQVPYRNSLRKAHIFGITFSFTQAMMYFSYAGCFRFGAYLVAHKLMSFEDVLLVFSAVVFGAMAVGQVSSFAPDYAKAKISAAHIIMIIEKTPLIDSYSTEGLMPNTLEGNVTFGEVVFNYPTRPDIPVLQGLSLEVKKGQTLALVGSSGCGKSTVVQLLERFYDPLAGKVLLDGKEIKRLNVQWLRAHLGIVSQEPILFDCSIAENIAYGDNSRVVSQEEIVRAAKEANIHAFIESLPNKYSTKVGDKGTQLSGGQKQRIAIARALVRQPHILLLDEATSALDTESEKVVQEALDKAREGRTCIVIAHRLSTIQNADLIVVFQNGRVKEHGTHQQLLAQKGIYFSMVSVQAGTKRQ
Chain of P-glycoprotein (ABCB1) (P08183 whole entry): as above

Consider `O=c1c2ccccc2oc2cc(OCC(O)CO)cc(O)c12` (configuration not stated), for which the “inhibition (INH)” value in [1] is listed as “Active”.

As to `O=c1c2ccccc2oc2cc(OCC(O)CCl)cc(O)c12` (configuration not stated), the “inhibition (INH)” value in series [1] was “Active”.

`COc1cccc2c(=O)c3c(O)cc(OCC4CS4)cc3oc12` (configuration not stated): the “inhibition (INH)” value in [1] was “Active”.

Turning to `COc1cc(OCC(O)CCl)cc2oc3ccccc3c(=O)c12` (configuration not stated), the “inhibition (INH)” value in [2] was “Not Active”; in series [1], “Active”; in series [3], “Not Active”. For the same compound, the result in the series with NCI/ADR-RES was inactive.

Take `O=c1c2ccccc2sc2cc(OCC(S)CCl)cc(O)c12` (configuration not stated): in series [1], the “inhibition (INH)” value is “Active”.

Consider `COc1cccc2c(=O)c3c(O)cc(OCC(S)CCl)cc3oc12` (configuration not stated), for which, in [1], the “inhibition (INH)” value is listed as “Active”.

In the case of `O=c1c2ccccc2sc2cc(OCC(O)CCl)cc(O)c12` (configuration not stated), the values for the Activity (in series [2]; in the series with Mus musculus [4]; in the series on Mus musculus [5]) were 707%, 3.52% and 6.19%, respectively. Further, in series [1], the “inhibition (INH)” value is on record as “Active”. Moreover, the Survival in the series on A549 [6] is 80%; in the series on A549 [17] it was 100%. Moreover, the Cmax – broadly, the peak of the concentration-time curve – in [7] was determined as 49 ng/mL. In addition, the TGI (commonly the reduction of tumour growth relative to the control group) in the series with A549 [8] was 61.6%; in the series with A549 [15], 52.6%. In addition, the figures for the AUC(0-t) in series [9] and in series [11] were 1250 ng·h/mL and 23 ng·h/mL, respectively. Also, the bioavailability (usually the share of a dose that reaches the circulation, judged against a reference dose that is usually intravenous) in series [10] is 0.6%. Further, the k el in series [12] is 0.000569 s⁻¹; in series [13], 0.000539 s⁻¹. For the same compound, the C0 in series [14] stood at 44300 ng/mL. For the same compound, the F in the series on Rattus norvegicus was found to be 100%. Besides, the outcome in the series with NCI/ADR-RES was inactive. The half-life in series [16] is 21 min; in [19], 23.4 min. Besides, the inhibition at 1 h, 100 µM at P-glycoprotein (ABCB1) is 70.4%. In addition, in series [18], the Tmax (in general, the time at which the peak concentration occurs) was 12.6 min.

With `O=c1c2ccccc2oc2cc(OCC3CS3)cc(OCC3CS3)c12` (configuration not stated), the “inhibition (INH)” value in series [1] is recorded as “Active”.

With `COc1cccc2c(=O)c3c(O)cc(OCC(O)CO)cc3oc12` (configuration not stated), the “inhibition (INH)” value in [1] is on record as “Active”.

In the case of `COc1cccc2c(=O)c3c(OCC4CS4)cc(OCC4CS4)cc3oc12` (configuration not stated), the “inhibition (INH)” value in series [1] was “Active”.

With `COc1ccc(CCN(C)CCCC(C#N)(c2ccc(OC)c(OC)c2)C(C)C)cc1OC` (configuration not stated) [VERAPAMIL], in series [2], the Activity worked out at 319%. The “inhibition (INH)” value in [1] was “Active”.

For the compound `COc1cccc2c(=O)c3c(O)cc(OCC(O)CCl)cc3oc12` (configuration not stated), in series [1], the “inhibition (INH)” value is recorded as “Active”.

For the compound `O=c1c2ccccc2sc2cc(OCC3CS3)cc(O)c12` (configuration not stated), the “inhibition (INH)” value in series [1] is “Active”.
